pIC50: −log10 of the molar value. Converted amounts (≈) assume the structure as drawn. The source made the active and inactive calls. No cut-off for these calls is given here.
How the values were obtained:
Escherichia coli [1] = assay: Ratio of IC50 for Escherichia coli RNA polymerase core enzyme to IC50 for Escherichia coli RNA polymerase holo enzyme
[2] = Inhibition of Escherichia coli RNA polymerase core enzyme by transcription assay
[3] = Inhibition of Escherichia coli RNA polymerase holo enzyme by transcription assay
[4] = Inhibition of Escherichia coli RNA polymerase-RNA polymerase sigma factor RpoD interaction by ELISA
Escherichia coli [5] = assay: Antibacterial activity against Escherichia coli expressing TolC mutant; type: functional
[6] = Inhibition of Escherichia coli RNA polymerase by transcription assay; details: for pIC50: read-out: IC50
Escherichia coli [7] = assay: Inhibition of Escherichia coli RNA polymerase at 200 uM by transcription assay
Bacillus subtilis = assay: Antibacterial activity against Bacillus subtilis; type: functional
Staphylococcus aureus = assay: Antibacterial activity against Staphylococcus aureus; type: functional
Pseudomonas aeruginosa = assay: Antibacterial activity against Pseudomonas aeruginosa PAO1; type: functional
Escherichia coli [8] = assay: Antibacterial activity against Escherichia coli K-12; type: functional
Escherichia coli [9] = assay: Inhibition of Escherichia coli RNA polymerase-RNA polymerase sigma factor RpoD interaction at 50 uM by ELISA
Escherichia coli [10] = assay: Induction of resistant frequency in Escherichia coli expressing TolC mutant at 2 times MIC treated for every 3 days; type: functional, organism-based
Escherichia coli [11] = assay: Inhibition of Escherichia coli RNA polymerase at 50 uM by transcription assay
Escherichia coli [12] = assay: Inhibition of Escherichia coli RNA polymerase-RNA polymerase sigma factor RpoD interaction at 10 uM by ELISA
Escherichia coli [13] = assay: Inhibition of lipid synthesis in Escherichia coli expressing TolC mutant at 4 times MIC after 45 mins; type: functional, organism-based
Escherichia coli [14] = assay: Inhibition of RNA synthesis in Escherichia coli expressing TolC mutant at 4 times MIC after 45 mins; type: functional, organism-based
Escherichia coli [15] = assay: Inhibition of protein synthesis in Escherichia coli expressing TolC mutant at 4 times MIC after 45 mins; type: functional, organism-based
Escherichia coli [16] = assay: Inhibition of DNA synthesis in Escherichia coli expressing TolC mutant at 4 times MIC after 45 mins; type: functional, organism-based

Structure (SMILES): O=C(Nc1cc(Br)ccc1C(=O)O)c1ccc(-c2ccccc2)cc1
- Ratio IC50 (Escherichia coli [1]): 3
- pIC50 [2]: 4.41
- pIC50 [3]: 4.57
- pIC50 [4]: 4.17
- MIC (Escherichia coli [5]): 2 µg/mL (≈ 5.05 µM)
- pIC50 [6]: 4.55

Structure (SMILES): O=C(Nc1ccccc1C(=O)O)c1cccc(Oc2ccccc2)c1
- MIC (Escherichia coli [5]): 9 µg/mL (≈ 27 µM)
- inhibition (Escherichia coli [7]): 23%

Structure (SMILES): O=C(Nc1ccc(F)cc1C(=O)O)c1cccc(Oc2ccccc2)c1
- MIC (Bacillus subtilis): 4 µg/mL (≈ 11.4 µM)
- MIC (Staphylococcus aureus): 48 µg/mL (≈ 137 µM)
- MIC (Pseudomonas aeruginosa): > 100 µg/mL
- MIC (Escherichia coli [8]): > 100 µg/mL
- MIC (Escherichia coli [5]): 5 µg/mL (≈ 14.2 µM)
- pIC50 [6]: 4.01

Structure (SMILES): O=C(Nc1cc(F)ccc1C(=O)O)c1ccc(-c2ccccc2)c(Oc2ccccc2)c1
- MIC (Bacillus subtilis): > 25 µg/mL
- MIC (Staphylococcus aureus): 17 µg/mL (≈ 39.8 µM)
- MIC (Pseudomonas aeruginosa): > 25 µg/mL
- MIC (Escherichia coli [8]): > 25 µg/mL
- MIC (Escherichia coli [5]): > 25 µg/mL
- pIC50 [6]: 4.89

Structure (SMILES): CCCN(CCC)S(=O)(=O)c1ccc(C(=O)Nc2cc3ccccc3cc2C(=O)O)cc1
- Ratio IC50 (Escherichia coli [1]): 2.6
- pIC50 [2]: 4.09
- pIC50 [3]: 4.28
- pIC50 [4]: 4.01

Structure (SMILES): Cc1ccc(NC(=O)c2ccc(-c3ccccc3)cc2)c(C(=O)O)c1
- MIC (Escherichia coli [5]): 7 µg/mL (≈ 21.1 µM)
- pIC50 [6]: 3.86

Structure (SMILES): O=C(Nc1cc(Cl)ccc1C(=O)O)c1ccc(-c2ccccc2)cc1
- MIC (Bacillus subtilis): 2 µg/mL (≈ 5.69 µM)
- MIC (Staphylococcus aureus): 24 µg/mL (≈ 68.2 µM)
- MIC (Pseudomonas aeruginosa): > 50 µg/mL
- MIC (Escherichia coli [8]): > 50 µg/mL
- MIC (Escherichia coli [5]): 3 µg/mL (≈ 8.53 µM)
- pIC50 [6]: 4.43

Structure (SMILES): O=C(Nc1ccc(OC(F)(F)F)cc1C(=O)O)c1ccc(-c2ccccc2)cc1
- MIC (Escherichia coli [5]): 4 µg/mL (≈ 9.97 µM)
- pIC50 [6]: 4.51

Structure (SMILES): O=C(Nc1cccc(Cl)c1C(=O)O)c1ccc(-c2ccccc2)cc1
- inhibition (Escherichia coli [9]): < 10%
- MIC (Escherichia coli [5]): 57 µg/mL (≈ 162 µM)
- IC50 [6]: Not Active

Structure (SMILES): O=C(Nc1ccc(Br)cc1C(=O)O)c1ccc(-c2ccccc2)cc1
- MIC (Escherichia coli [5]): 3 µg/mL (≈ 7.57 µM)
- pIC50 [6]: 4.51

Structure (SMILES): COc1ccc(NC(=O)c2ccc(-c3ccccc3)cc2)c(C(=O)O)c1
- MIC (Escherichia coli [5]): 8 µg/mL (≈ 23 µM)
- inhibition (Escherichia coli [7]): 52%

Structure (SMILES): O=C(Nc1ccccc1C(=O)O)c1ccc(-c2ccccc2)cc1
- MIC (Escherichia coli [5]): 13 µg/mL (≈ 41 µM)
- inhibition (Escherichia coli [7]): 31%

Structure (SMILES): O=C(Nc1ccc(Br)cc1C(=O)O)c1cccc(Oc2ccccc2)c1
- MIC (Escherichia coli [5]): 3 µg/mL (≈ 7.28 µM)
- pIC50 [6]: 4.47

Structure (SMILES): O=C(Nc1cc(Br)ccc1C(=O)O)c1cccc(Oc2ccccc2)c1
- MIC (Bacillus subtilis): 3 µg/mL (≈ 7.28 µM)
- MIC (Staphylococcus aureus): 8 µg/mL (≈ 19.4 µM)
- MIC (Pseudomonas aeruginosa): > 25 µg/mL
- MIC (Escherichia coli [8]): > 25 µg/mL
- MIC (Escherichia coli [5]): 3 µg/mL (≈ 7.28 µM)
- pIC50 [6]: 4.47

Structure (SMILES): O=C(Nc1cc(Cl)ccc1C(=O)O)c1cccc(Oc2ccccc2)c1
- MIC (Bacillus subtilis): 3 µg/mL (≈ 8.16 µM)
- MIC (Staphylococcus aureus): 14 µg/mL (≈ 38.1 µM)
- MIC (Pseudomonas aeruginosa): > 50 µg/mL
- MIC (Escherichia coli [8]): > 50 µg/mL
- MIC (Escherichia coli [5]): 3 µg/mL (≈ 8.16 µM)
- pIC50 [6]: 4.36

Structure (SMILES): O=C(Nc1cc(Cl)ccc1C(=O)O)c1ccc(-c2ccccc2)c(Oc2ccccc2)c1
- Ratio IC50 (Escherichia coli [1]): 2.9
- pIC50 [2]: 4.92
- pIC50 [3]: 5.15
- pIC50 [4]: 4.48
- MIC (Escherichia coli [5]): > 25 µg/mL
- pIC50 [6]: 5.05

Structure (SMILES): CCCC/C(C)=C/C=C(\C)C(=O)c1c(O)cc([C@H](C)CC/C=C/NC(=O)OC)oc1=O [MYXOPYRONIN B]
- MIC (Bacillus subtilis): 0.9 µg/mL (≈ 2.09 µM)
- MIC (Staphylococcus aureus): 0.5 µg/mL (≈ 1.16 µM)
- MIC (Pseudomonas aeruginosa): > 25 µg/mL
- MIC (Escherichia coli [8]): > 25 µg/mL
- MIC (Escherichia coli [5]): 1 µg/mL (≈ 2.32 µM)
- pIC50 [6]: 6.46

Structure (SMILES): O=C(Nc1ccc(Cl)cc1C(=O)O)c1ccc(-c2ccccc2)cc1
- MIC (Escherichia coli [5]): 2 µg/mL (≈ 5.69 µM)
- pIC50 [6]: 4.34

Structure (SMILES): O=C(Nc1ccc(C(F)(F)F)cc1C(=O)O)c1ccc(-c2ccccc2)cc1
- Activity (Escherichia coli [10]): Active
- MIC (Bacillus subtilis): 4 µg/mL (≈ 10.4 µM)
- MIC (Staphylococcus aureus): 5 µg/mL (≈ 13 µM)
- MIC (Pseudomonas aeruginosa): > 50 µg/mL
- MIC (Escherichia coli [8]): > 50 µg/mL
- Ratio IC50 (Escherichia coli [1]): 4
- pIC50 [2]: 4.17
- pIC50 [3]: 4.55
- pIC50 [4]: 4.22
- MIC (Escherichia coli [5]): 2 µg/mL (≈ 5.19 µM)
- pIC50 [6]: 4.55

Structure (SMILES): O=C(Nc1cc([N+](=O)[O-])ccc1C(=O)O)c1ccc(-c2ccccc2)cc1
- MIC (Escherichia coli [5]): > 25 µg/mL
- pIC50 [6]: 4.44

Structure (SMILES): O=C(Nc1cc(C(F)(F)F)ccc1C(=O)O)c1ccc(-c2ccccc2)cc1
- MIC (Escherichia coli [5]): 5 µg/mL (≈ 13 µM)
- pIC50 [6]: 4.57

Structure (SMILES): O=C(Nc1ccc(O)cc1C(=O)O)c1ccc(-c2ccccc2)cc1
- MIC (Escherichia coli [5]): 31 µg/mL (≈ 93 µM)
- inhibition (Escherichia coli [7]): 17%

Structure (SMILES): O=C(Nc1ccccc1C(=O)O)c1ccccc1
- MIC (Escherichia coli [5]): > 100 µg/mL
- IC50 [6]: Not Active

Structure (SMILES): N#Cc1ccc(NC(=O)c2ccc(-c3ccccc3)cc2)c(C(=O)O)c1
- MIC (Escherichia coli [5]): 7 µg/mL (≈ 20.4 µM)
- inhibition (Escherichia coli [11]): 23%

Structure (SMILES): C=CCN1C(=O)/C(=C/c2ccc(-c3cccc(C(=O)O)c3)o2)SC1=S
- Ratio IC50 (Escherichia coli [1]): 2.6
- pIC50 [2]: 4.24
- pIC50 [3]: 4.42
- pIC50 [4]: 4.52

Structure (SMILES): CO[C@H]1/C=C/O[C@@]2(C)Oc3c(C)c(O)c4c(O)c(c(/C=N/N5CCN(C)CC5)c(O)c4c3C2=O)NC(=O)/C(C)=C\C=C\[C@H](C)[C@H](O)[C@@H](C)[C@@H](O)[C@@H](C)[C@H](OC(C)=O)[C@@H]1C [RIFAMPIN]
- Activity (Escherichia coli [10]): Active
- MIC (Bacillus subtilis): 5 µg/mL (≈ 6.08 µM)
- MIC (Staphylococcus aureus): 0.02 µg/mL (≈ 0.0243 µM)
- MIC (Pseudomonas aeruginosa): 13 µg/mL (≈ 15.8 µM)
- MIC (Escherichia coli [8]): 7 µg/mL (≈ 8.51 µM)
- Ratio IC50 (Escherichia coli [1]): 1
- pIC50 [2]: 7.80
- pIC50 [3]: 7.57
- inhibition (Escherichia coli [12]): < 5%
- MIC (Escherichia coli [5]): 10 µg/mL (≈ 12.2 µM)
- pIC50 [6]: 7.52

Structure (SMILES): COc1ccc(C(=O)O)c(NC(=O)c2ccc(-c3ccccc3)cc2)c1
- MIC (Escherichia coli [5]): 9 µg/mL (≈ 25.9 µM)
- pIC50 [6]: 3.79

Structure (SMILES): O=C(Nc1ccc(F)cc1C(=O)O)c1ccc(-c2ccccc2)cc1
- MIC (Escherichia coli [5]): 7 µg/mL (≈ 20.9 µM)
- pIC50 [6]: 3.86

Structure (SMILES): O=C(Nc1c(Cl)cccc1C(=O)O)c1ccc(-c2ccccc2)cc1
- MIC (Escherichia coli [5]): 55 µg/mL (≈ 156 µM)
- IC50 [6]: Not Active

Structure (SMILES): O=C(Nc1cc(-c2ccccc2)ccc1C(=O)O)c1cccc(Oc2ccccc2)c1
- MIC (Escherichia coli [5]): 8 µg/mL (≈ 19.5 µM)
- pIC50 [6]: 4.85

Structure (SMILES): COc1cc(NC(=O)c2ccc(-c3ccccc3)cc2)c(C(=O)O)cc1OC
- MIC (Escherichia coli [5]): 19 µg/mL (≈ 50.3 µM)
- inhibition (Escherichia coli [7]): 35%

Structure (SMILES): COc1cccc(NC(=O)c2ccc(-c3ccccc3)cc2)c1C(=O)O
- MIC (Escherichia coli [5]): 58 µg/mL (≈ 167 µM)
- IC50 [6]: Not Active

Structure (SMILES): O=C(Nc1ccc(-c2ccccc2)cc1C(=O)O)c1cccc(Oc2ccccc2)c1
- Activity (Escherichia coli [10]): Active
- inhibition (Escherichia coli [13]): inactive
- inhibition (Escherichia coli [14]): inactive
- inhibition (Escherichia coli [15]): inactive
- inhibition (Escherichia coli [16]): inactive
- MIC (Bacillus subtilis): 3 µg/mL (≈ 7.33 µM)
- MIC (Staphylococcus aureus): 6 µg/mL (≈ 14.7 µM)
- MIC (Pseudomonas aeruginosa): > 25 µg/mL
- MIC (Escherichia coli [8]): > 25 µg/mL
- Ratio IC50 (Escherichia coli [1]): 2.8
- pIC50 [2]: 4.57
- pIC50 [3]: 4.80
- pIC50 [4]: 4.33
- MIC (Escherichia coli [5]): 2 µg/mL (≈ 4.88 µM)
- pIC50 [6]: 4.89

Structure (SMILES): COc1cc(NC(=O)c2cccc(Oc3ccccc3)c2)c(C(=O)O)cc1OC
- MIC (Escherichia coli [5]): 6 µg/mL (≈ 15.3 µM)
- pIC50 [6]: 3.81

Structure (SMILES): O=C(Nc1cc(F)ccc1C(=O)O)c1ccc(-c2ccccc2)cc1
- MIC (Escherichia coli [5]): 4 µg/mL (≈ 11.9 µM)
- pIC50 [6]: 4.01

Structure (SMILES): O=C(Nc1ccccc1C(=O)O)c1ccc(-c2ccccc2)c(Oc2ccccc2)c1
- Ratio IC50 (Escherichia coli [1]): 3
- pIC50 [2]: 4.44
- pIC50 [3]: 4.70
- pIC50 [4]: 4.39
- MIC (Escherichia coli [5]): 13 µg/mL (≈ 31.8 µM)
- inhibition (Escherichia coli [7]): 100%
- pIC50 [6]: 4.70

Structure (SMILES): O=C(Nc1cccc(F)c1C(=O)O)c1ccc(-c2ccccc2)cc1
- MIC (Escherichia coli [5]): 34 µg/mL (≈ 101 µM)
- inhibition (Escherichia coli [7]): 14%

Structure (SMILES): O=C(Nc1ccc(Br)cc1C(=O)O)c1cccc(Cc2ccccc2)c1
- MIC (Escherichia coli [5]): 2 µg/mL (≈ 4.87 µM)
- pIC50 [6]: 4.43

Reference: ChEMBL document CHEMBL2439977, “Discovery of novel bacterial RNA polymerase inhibitors: pharmacophore-based virtual screening and hit optimization” (J Med Chem, 2013)
